Results as given in patent US6638974B1, “Ascorbyl esters for the treatment of cancer” (University of South Florida, priority 1999, dated 2003).

Experiments:
T98G cells = experiment: MTT cell proliferation assay, T98G; format: cell-based, human; details: for inhibition at 50 µM / inhibition at 100 µM / inhibition at 175 µM: Homo sapiens, T98G
Description: T98G cell proliferation: Murine (G26) and human glioma (U-373) cell proliferation was inhibited following exposure to ascorbyl esters (Naidu et al., 1993a and 1993b). The cell proliferation was assessed by [^3H] thymidine incorporation and MTT assay (Naidu et al., 1993a, 1993b and 1996). […] The T98G cells were cultured for 24 hours in MEM+10% FBS, and, when confluent, were treated with 0 (untreated control), 50, 75, 100, 125, 150 and 175 μM Asc-S. Appropriate untreated controls were included. The cell proliferation was measured by MTT assay.

Ras (p21) = Ras (p21) expression by Western blot, PANC-1; format: cell-based, human; details: 150 μM, 24 hours
Description: PANC-1 cells were cultured for 24 hours in MEM+10% FBS and treated with 150 μM Asc-S for 24 hours, Asc-S treated and untreated (control). PANC-1 cells were analyzed by Western immunoblotting as follows: Cell lysates of treated and non-treated PANC-1 cells were obtained. The lysates were sonicated, centrifuged and protein concentration was determined with Pierce BCA protein kit (Pierce Laboratories). A 20 μg of protein was loaded and resolved at 4% to 15% polyacrylamide gradient gel by sodium dodecyl sulfate-polyacrylamide gel electrophoresis (SDS-PAGE) and electroblotted onto a nitrocellulose membrane […]. The membrane was immunoblotted with mouse anti-human IGF1-R antibodies to cross-react the 85 kDa β-subunit of the IGF1-R (Pharmingen, San Diego, Calif.) followed by anti-mouse horseradish peroxidase conjugated secondary antibody (ECL, Amersham Corporation, Arlington Heights, Ill.). Antigen bound to nitrocellulose membrane was detected with the ECL system (Amersham Corporation, Arlington Heights, Ill.). P6 cells (3T3 fibroblast cells, transfected with a CVN plasmid constituitively expressing human IGF1-R) were used as the positive control.
Effects of Asc-S on Ras expression in PANC-1 cells: The activation of the IGF1-R induces a cascade of phosphorylations including that of GDP to GTP with activation of the Ras pathway. […]

[1] = test system: OVCAR-3 and PANC-1 s.c. tumors; experiment: s.c. OVCAR-3 and PANC-1 tumors in BALB/c nude mice; format: in vivo, mouse; details: 100 mg/Kg s.c. daily for two weeks
Description: The experimental approach is to test effect of Ascorbyl stearate (Asc-S) on the tumorigenicity of ovarian and pancreatic tumor cells. Procedures involve culturing OVCOR-3 (ovarian cancer cells) and PANC-1 (pancreatic cancer cells). When confluent, cells were trypsinized, washed and resuspended in sterile phosphate buffered solution ([…]) in a volume of 0.1 ml and injected s.c. above the hind leg of the mice. Two groups each for OVCOR-3 and PANC-1 tumor cells were established.
Asc-S is lipophilic compound. Asc-S was dissolved in a small volume of ethyl alcohol and then reconstituted in sterile normal saline. The final concentration of ethyl alcohol was ˜5%. At that concentration ethyl alcohol would not have any deleterious effect. […] The controls received […] of a mixture of 0.5:10 ethyl alcohol and sterile normal saline.
Group 1 is made up of OVCAR-3 cells plus Vehicle. A mixture of 0.5:10 of ethyl alcohol and normal saline was used as the vehicle. Group 2 is made up of OVCAR-3 cells plus Asc-S at a concentration of 100 mg/Kg was administered subcutaneously at the vicinity of the s.c. tumor one week prior to treatment with Asc-S. The Asc-S was distributed in a small volume of ethyl alcohol and then reconstituted into normal saline. […]
For the preliminary studies, six mice per group were used. […] The s.c. tumors were isolated, tumor sizes were measured and processed for pathological evaluation. […]

[2] = mice; cited from earlier work
PANC-1 cells = experiment: MTT cell growth and viability assay, PANC-1; format: cell-based, human; details: 50-175 μM Asc-S, 24 hours, MEM+10% FBS or serum free MEM+15 nM IGF-1
Description: PANC-1 Cell Culture: The human pancreatic ductal adenocarcinoma cell line PANC-1 was obtained from the American Type Culture Collection (Rockville, Md.). PANC-1 cells were cultured for 24 hours in Minimum Essential Medium (MEM) (Whitaker M A Bioproducts, Walkersville, Md.) supplemented with 10% fetal bovine serum (FBS) (Hyclone Laboratories, Logan, Utah) or serum free MEM+15 nM human recombinant IGF-1, penicillin (50 U/ml), streptomycin (50 μg/ml) and 1.0 mM L-glutamine.
Cell Growth and Vitality: The effect of Asc-S on PANC-1 and PC-1 cell growth and viability was evaluated by 3-(4,5-dimethylthiazol-2yl)-2,5-diphenyl-tetrazoliumbromide (MTT) (Sigma Chemical Co., St. Louis, Md.) assay and the details of the procedure are as described earlier (Naidu et al., 1993a) PANC-1 cells were seeded at 2.5×10^4 viable cells well in 0.1 ml MEM supplemented with 10% FBS or serum free MEM with 15 nM human recombinant IGF-1 in 96 multiwell tissue culture plates. The following day when the cells were nearly confluent, the medium was replaced with fresh medium and 50, 75, 100, 125, 150, 175 and 200 μM Asc-S were added and incubated in a CO2 incubator at 37° C. for 24 hours with respective untreated controls.

CCCCCCCCCCCCCCCCCC(=O)OC[C@H](O)[C@H]1OC(=O)C(O)=C1O [Asc-S, Ascorbyl stearate]
T98G cell proliferation (MTT assay) (T98G cells; 50-175 μM Asc-S, 24 hours): inhibited cell proliferation in a dose dependent manner
inhibition at 50 µM (T98G cells; cultured with FBS, 50 μM): 8.7%
inhibition at 100 µM (T98G cells; cultured with FBS, 100 μM): 38.5%
inhibition at 175 µM (T98G cells; cultured with FBS, 175 μM): 87.2%
inhibition at 50 µM (T98G cells; with IGF-1, 50 μM): 15.3%
inhibition at 100 µM (T98G cells; with IGF-1, 100 μM): 54.2%
inhibition at 175 µM (T98G cells; with IGF-1, 175 μM): 87.7%
Ras (p21) expression, PANC-1 (Ras (p21)): significant inhibition
apoptotic cells in s.c. tumors (pathological evaluation) [1]: predominantly higher percentage of apoptotic cells
decrease in the size of the tumors compared to untreated controls [1]: 70%
LD50 [2]: 25000 mg/kg
PANC-1 cell proliferation (MTT assay) (PANC-1 cells): inhibited cell proliferation in a dose dependent manner
